Where two headings read alike, the source gives them in different places.
Tests used:
CRBN-DDB1 = CRBN-DDB1 (Homo sapiens (Human), UniProt Q96SW2); assay: Compound binding to CRBN by HTRF assay
Summary of the method: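 Ki calculated via Cheng-Prusoff from geometric-mean EC50 values, after normalizing the HTRF ratio to lenalidomide (active) and DMSO (neutral) controls. Compounds (11 points, 1:3 steps) incubated 30 min at ambient temperature with CRBN-DDB1 2.5 nM, anti-His Tb cryptate and Cy5-thalidomide tracer 100 nM.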

IL-1β release = IL-1β release in human monocyte-derived macrophages, LPS/nigericin stimulation; assay type: cell-based; conditions: Macrophage, 24 h pre-treatment, LPS 3 h then 10 μM nigericin 1 h, read-out: IL-1b IC50 (NIG)
Protocol: Human monocytes were enriched and isolated from a buffy coat of healthy donor whole blood with a RosetteSep™ Human Monocyte Enrichment Cocktail (Cat.No. 15068, StemCell) and Ficoll-Plaque PLUS (Cat.No. H8889, Sigma). Monocytes were differentiated into macrophages by treatment with 100 ng/mL M-CSF for 6 days at 37° C., 5% CO2. Differentiated macrophages were seeded overnight (50,000 cells/well) in 100 µL of medium in a 96-well, white-bottom plate at 37° C., 5% CO2. Cells were treated with a concentration range of MGD for 24 hours prior to stimulation with nigericin. Macrophages were primed with […] LPS for 3 h followed by 1 h stimulation with 10 μM nigericin. Media of stimulated macrophages were collected and assayed for caspase 1 activity directly (Promega G9951), according to manufacturer's instructions. For IL-1β release assay, media of stimulated macrophages were collected and stored at −20° C., then thawed at 4° C. before assaying for IL-1β activity (Promega W6011), according to manufacturer's instructions.

NEK7 = NEK7 (Homo sapiens (Human), UniProt Q8TDX7+Q96SW2); assay: NEK7 NanoBiT degradation assay in Cal51 NEK7 NanoBiT cell line; assay type: cell-based; conditions: Cal51 NEK7 NanoBiT cells, 24 hours; for Dmax: CAL-51
Chain of NEK7 (Q8TDX7 whole entry): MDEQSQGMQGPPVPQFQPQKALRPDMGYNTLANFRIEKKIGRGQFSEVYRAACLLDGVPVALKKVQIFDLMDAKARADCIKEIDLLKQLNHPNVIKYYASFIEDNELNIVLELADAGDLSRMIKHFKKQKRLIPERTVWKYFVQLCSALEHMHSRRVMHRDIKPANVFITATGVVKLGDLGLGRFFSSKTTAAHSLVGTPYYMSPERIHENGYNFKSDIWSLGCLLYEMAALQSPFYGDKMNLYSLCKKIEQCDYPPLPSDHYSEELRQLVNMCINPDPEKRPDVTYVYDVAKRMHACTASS
Chain of NEK7 (Q96SW2 whole entry): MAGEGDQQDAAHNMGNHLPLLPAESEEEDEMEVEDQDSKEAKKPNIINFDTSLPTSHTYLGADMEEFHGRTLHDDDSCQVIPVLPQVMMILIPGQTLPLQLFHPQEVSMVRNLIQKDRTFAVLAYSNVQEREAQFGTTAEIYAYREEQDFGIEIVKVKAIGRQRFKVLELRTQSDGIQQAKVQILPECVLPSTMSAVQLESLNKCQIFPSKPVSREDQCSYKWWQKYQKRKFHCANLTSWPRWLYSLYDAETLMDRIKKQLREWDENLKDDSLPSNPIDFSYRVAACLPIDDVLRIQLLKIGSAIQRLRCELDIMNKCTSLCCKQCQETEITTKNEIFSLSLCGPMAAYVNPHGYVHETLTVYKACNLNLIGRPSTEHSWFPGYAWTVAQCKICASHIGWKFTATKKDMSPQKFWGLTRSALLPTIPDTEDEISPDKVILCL
Chain of NEK7 (Q16531 2-1140 partner): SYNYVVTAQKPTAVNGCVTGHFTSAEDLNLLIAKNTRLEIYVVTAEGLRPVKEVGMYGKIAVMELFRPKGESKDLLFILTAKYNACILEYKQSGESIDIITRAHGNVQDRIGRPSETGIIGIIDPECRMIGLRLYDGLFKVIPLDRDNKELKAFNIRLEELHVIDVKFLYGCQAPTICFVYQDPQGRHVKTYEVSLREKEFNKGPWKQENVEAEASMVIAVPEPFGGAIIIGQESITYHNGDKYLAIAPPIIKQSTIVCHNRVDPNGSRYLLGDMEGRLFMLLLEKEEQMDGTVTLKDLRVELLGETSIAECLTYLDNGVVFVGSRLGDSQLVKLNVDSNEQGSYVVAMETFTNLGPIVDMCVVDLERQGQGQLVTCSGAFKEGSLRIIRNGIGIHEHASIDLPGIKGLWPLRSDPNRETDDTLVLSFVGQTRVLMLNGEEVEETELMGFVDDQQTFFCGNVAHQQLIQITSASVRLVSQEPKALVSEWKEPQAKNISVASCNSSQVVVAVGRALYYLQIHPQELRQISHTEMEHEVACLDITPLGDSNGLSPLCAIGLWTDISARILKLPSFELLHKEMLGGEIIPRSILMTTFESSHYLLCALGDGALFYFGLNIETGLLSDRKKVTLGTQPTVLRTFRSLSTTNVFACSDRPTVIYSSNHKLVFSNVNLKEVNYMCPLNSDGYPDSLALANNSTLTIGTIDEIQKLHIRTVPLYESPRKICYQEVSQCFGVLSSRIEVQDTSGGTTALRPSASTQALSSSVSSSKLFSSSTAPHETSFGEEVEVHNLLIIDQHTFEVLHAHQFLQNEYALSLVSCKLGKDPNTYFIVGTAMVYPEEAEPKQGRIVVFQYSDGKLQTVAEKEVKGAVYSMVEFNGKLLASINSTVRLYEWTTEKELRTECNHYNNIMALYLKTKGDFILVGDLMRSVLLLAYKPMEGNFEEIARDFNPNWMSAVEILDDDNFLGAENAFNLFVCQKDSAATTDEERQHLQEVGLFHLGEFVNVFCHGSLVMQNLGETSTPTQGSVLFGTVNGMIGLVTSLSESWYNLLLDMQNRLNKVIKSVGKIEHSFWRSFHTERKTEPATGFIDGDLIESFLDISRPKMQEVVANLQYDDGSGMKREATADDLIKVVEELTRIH
Summary of the method: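 EC50 comes from a 4-parameter fit of control-normalized luminescence. The luminescence reports HiBiT-NEK7 (endogenous knock-in) complemented by stably expressed LgBiT in Cal51 cells after 24 h compound exposure at 37 °C. Final concentrations ran 1 μM to 0.05 nM, with Endurazine substrate present in the medium throughout.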

[1] = NEK7 degradation, read-out: NanoBiT Dmax
[2] = NEK7 degradation, read-out: NanoBiT DC50

Chain of CRBN-DDB1 (Q96SW2 whole entry): as the sequence (Q96SW2 whole entry) above
Chain of CRBN-DDB1 (Q16531 whole entry partner): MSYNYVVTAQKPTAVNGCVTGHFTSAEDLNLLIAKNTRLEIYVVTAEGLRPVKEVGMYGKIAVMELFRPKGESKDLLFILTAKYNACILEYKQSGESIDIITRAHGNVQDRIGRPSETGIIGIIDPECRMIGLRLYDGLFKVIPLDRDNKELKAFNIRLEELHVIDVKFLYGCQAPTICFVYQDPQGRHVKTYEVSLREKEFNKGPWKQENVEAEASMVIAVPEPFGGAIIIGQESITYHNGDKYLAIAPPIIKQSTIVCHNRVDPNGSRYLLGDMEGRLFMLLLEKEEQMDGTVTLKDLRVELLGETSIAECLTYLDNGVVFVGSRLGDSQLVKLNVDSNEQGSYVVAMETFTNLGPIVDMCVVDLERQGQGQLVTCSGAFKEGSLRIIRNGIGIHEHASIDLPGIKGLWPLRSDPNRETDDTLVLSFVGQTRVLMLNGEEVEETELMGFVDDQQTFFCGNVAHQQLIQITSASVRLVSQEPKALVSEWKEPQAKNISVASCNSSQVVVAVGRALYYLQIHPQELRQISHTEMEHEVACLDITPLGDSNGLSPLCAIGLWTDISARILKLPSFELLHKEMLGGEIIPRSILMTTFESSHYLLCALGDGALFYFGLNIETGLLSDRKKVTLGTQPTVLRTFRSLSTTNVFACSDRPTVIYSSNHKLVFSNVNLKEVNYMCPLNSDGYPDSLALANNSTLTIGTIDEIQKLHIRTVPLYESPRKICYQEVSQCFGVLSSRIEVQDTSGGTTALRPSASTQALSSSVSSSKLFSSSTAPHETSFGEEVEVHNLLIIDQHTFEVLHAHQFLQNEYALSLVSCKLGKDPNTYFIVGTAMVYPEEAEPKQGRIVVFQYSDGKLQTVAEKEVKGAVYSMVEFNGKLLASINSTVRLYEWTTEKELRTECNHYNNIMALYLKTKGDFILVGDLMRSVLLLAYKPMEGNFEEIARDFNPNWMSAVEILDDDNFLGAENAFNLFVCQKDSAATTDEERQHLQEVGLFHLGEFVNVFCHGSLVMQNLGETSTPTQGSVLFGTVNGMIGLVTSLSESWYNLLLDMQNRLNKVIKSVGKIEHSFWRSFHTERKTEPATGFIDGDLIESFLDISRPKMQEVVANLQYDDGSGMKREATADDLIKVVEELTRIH

| EC50 (CRBN-DDB1) [nM] | EC50 (CRBN-DDB1; HTRF class, Cereblon binding) [nM] | IC50 (IL-1β release) [nM] | Dmax (NEK7; read-out: NEK7 NanoBiT Dmax) [%] | Dmax (NEK7; [1]) [%] | DC50 (NEK7; read-out: NEK7 NanoBiT DC50) [nM] | DC50 (NEK7; [2]) [nM] | Structure (SMILES) |
| --- | --- | --- | --- | --- | --- | --- | --- |
| 20 | ≤ 100 | 0.03 | 98 | > 75 | 0.1 | ≤ 100 | CC(C)(C(=O)NCc1cc(Cl)c(C2CCC(=O)NC2=O)c(Cl)c1)c1ccc2ocnc2c1 (centres unmarked) [Compound 17] |
| 70 | ≤ 100 | 0.1 | 98 | > 75 | 1 | ≤ 100 | CC(C)(C(=O)NCc1cc(Cl)c(C2CCC(=O)NC2=O)c(Cl)c1)c1c(F)cccc1F (centres unmarked) [Compound 94] |
| 90 | ≤ 100 |  | 54 | 50 to 75 | 464 | 100 to 1000 | CC(F)(F)c1cnc(C(C)(C)C(=O)NCc2cc(F)c(C3CCC(=O)NC3=O)c(Cl)c2)cn1 (centres unmarked) [Compound 255] |
| 80 | ≤ 100 |  | 85 | > 75 | 11 | ≤ 100 | COc1cnc(C(C)(C)C(=O)NCc2cc(F)c(C3CCC(=O)NC3=O)c(Cl)c2)nc1 (centres unmarked) [Compound 256] |
| 50 | ≤ 100 |  | 95 | > 75 | 1 | ≤ 100 | CC(C)(C(=O)NCc1cc(Cl)c(C2CCC(=O)NC2=O)c(Cl)c1)c1cnc(OC(F)F)cn1 (centres unmarked) [Compound 257] |
| 70 | ≤ 100 |  | 91 | > 75 | 4 | ≤ 100 | CCOc1ccc(C(C)(C)C(=O)NCc2cc(F)c(C3CCC(=O)NC3=O)c(Cl)c2)nn1 (centres unmarked) [Compound 258] |
| 90 | ≤ 100 |  | 91 | > 75 | 6 | ≤ 100 | CC(C)(C(=O)NCc1cc(Cl)c(C2CCC(=O)NC2=O)c(Cl)c1)c1cnc(OC(F)(F)F)cn1 (centres unmarked) [Compound 259] |
| 110 | 100 to 1000 |  | 47 | ≤ 50 | 480 | 100 to 1000 | CC(C)(C(=O)NCc1cc(F)c(C2CCC(=O)NC2=O)c(Cl)c1)c1cc(F)ccn1 (centres unmarked) [Compound 260, N-(3-chloro-4-(2,6-dioxopiperidin-3-yl)-5-fluorobenzyl)-2-(4-fluoropyridin-2-yl)-2-methylpropanamide] |
| 90 | ≤ 100 |  | 87 | > 75 | 12 | ≤ 100 | COc1ccc(C(C)(C)C(=O)NCc2cc(F)c(C3CCC(=O)NC3=O)c(Cl)c2)nc1 (centres unmarked) [Compound 261] |
| 80 | ≤ 100 |  | 88 | > 75 | 12 | ≤ 100 | COc1ccc(C(C)(C)C(=O)NCc2cc(F)c(C3CCC(=O)NC3=O)c(Cl)c2)nn1 (centres unmarked) [Compound 262] |
| 100 | 100 to 1000 |  | 90 | > 75 | 7 | ≤ 100 | CC(F)(F)c1cnc(C(C)(C)C(=O)NCc2cc(Cl)c(C3CCC(=O)NC3=O)c(Cl)c2)cn1 (centres unmarked) [Compound 263] |
| 130 | 100 to 1000 |  | 68 | 50 to 75 | 100 | ≤ 100 | CC(C)(C(=O)NCc1cc(F)c(C2CCC(=O)NC2=O)c(Cl)c1)c1cnc(OC(F)(F)F)cn1 (centres unmarked) [Compound 264] |
| 90 | ≤ 100 |  | 56 | 50 to 75 | 474 | 100 to 1000 | CC(C)(C(=O)NCc1cc(Cl)c(C2CCC(=O)NC2=O)c(Cl)c1)C1CCCO1 (centres unmarked) [Compound 265, N-(3,5-dichloro-4-(2,6-dioxopiperidin-3-yl)benzyl)-2-methyl-2-(tetrahydrofuran-2-yl)propanamide] |
| 120 | 100 to 1000 |  | 82 | > 75 | 15 | ≤ 100 | CC(C)(C(=O)NCc1cc(Cl)c(C2CCC(=O)NC2=O)c(Cl)c1)c1cn(C(C)(F)F)c(=O)cn1 (centres unmarked) [Compound 266, N-(3,5-dichloro-4-(2,6-dioxopiperidin-3-yl)benzyl)-2-(4-(1,1-difluoroethyl)-5-oxo-4,5-dihydropyrazin-2-yl)-2-methylpropanamide] |
| 110 | 100 to 1000 |  | 94 | > 75 | 3 | ≤ 100 | CC(C)(C(=O)NCc1cc(F)c(C2CCC(=O)NC2=O)c(Cl)c1)c1ccc(OC(F)F)nc1 (centres unmarked) [Compound 267] |
| 120 | 100 to 1000 |  | 88 | > 75 | 11 | ≤ 100 | COc1conc1C(C)(C)C(=O)NCc1cc(F)c(C2CCC(=O)NC2=O)c(Cl)c1 (centres unmarked) [Compound 268] |
| 100 | 100 to 1000 |  | 95 | > 75 | 1 | ≤ 100 | CC(C)(C(=O)NCc1cc(F)c(C2CCC(=O)NC2=O)c(Cl)c1)c1ccc(OCC(F)F)nc1 (centres unmarked) [Compound 269, N-(3-chloro-4-(2,6-dioxopiperidin-3-yl)-5-fluorobenzyl)-2-(6-(2,2-difluoroethoxy)pyridin-3-yl)-2-methylpropanamide] |
| 190 | 100 to 1000 |  | 72 | 50 to 75 | 73 | ≤ 100 | Cc1cnc(C(C)(C)C(=O)NCc2cc(F)c(C3CCC(=O)NC3=O)c(Cl)c2)o1 (centres unmarked) [Compound 270, N-(3-chloro-4-(2,6-dioxopiperidin-3-yl)-5-fluorobenzyl)-2-methyl-2-(5-methyloxazol-2-yl)propanamide] |
| 520 | 100 to 1000 |  | 68 | 50 to 75 | 213 | 100 to 1000 | Cc1cnc(C(C)(C)C(=O)NCc2cc(C)c(C3CCC(=O)NC3=O)c(Cl)c2)nc1 (centres unmarked) [Compound 271] |
| 230 | 100 to 1000 |  | 57 | 50 to 75 | 312 | 100 to 1000 | CC(C)(C(=O)NCc1cc(F)c(C2CCC(=O)NC2=O)c(Cl)c1)c1ccc(OC(F)(F)F)nn1 (centres unmarked) [Compound 272] |
| 210 | 100 to 1000 |  | 61 | 50 to 75 | 190 | 100 to 1000 | Cc1ccc(C(C)(C)C(=O)NCc2cc(F)c(C3CCC(=O)NC3=O)c(Cl)c2)nn1 (centres unmarked) [Compound 275] |
| 190 | 100 to 1000 |  | 79 | > 75 | 33 | ≤ 100 | CC(C)(C(=O)NCc1cc(F)c(C2CCC(=O)NC2=O)c(Cl)c1)c1ccc(OC(F)F)nn1 (centres unmarked) [Compound 276] |
| 180 | 100 to 1000 |  | 61 | 50 to 75 | 155 | 100 to 1000 | CC(F)(F)c1ccc(C(C)(C)C(=O)NCc2cc(F)c(C3CCC(=O)NC3=O)c(Cl)c2)nn1 (centres unmarked) [Compound 277] |
| 190 | 100 to 1000 |  | 71 | 50 to 75 | 76 | ≤ 100 | CC(C)(C(=O)NCc1cc(F)c(C2CCC(=O)NC2=O)c(Cl)c1)c1nocc1C(F)(F)F (centres unmarked) [Compound 278] |
| 350 | 100 to 1000 |  | 54 | 50 to 75 | 672 | 100 to 1000 | Cc1conc1C(C)(C)C(=O)NCc1cc(F)c(C2CCC(=O)NC2=O)c(Cl)c1 (centres unmarked) [Compound 279] |
| 290 | 100 to 1000 |  | 60 | 50 to 75 | 143 | 100 to 1000 | CC(C)(C(=O)NCc1cc(F)c(C2CCC(=O)NC2=O)c(Cl)c1)c1ccc(C(F)F)nn1 (centres unmarked) [Compound 280] |
| 260 | 100 to 1000 |  | 67 | 50 to 75 | 179 | 100 to 1000 | Cc1ncc(C(C)(C)C(=O)NCc2cc(F)c(C3CCC(=O)NC3=O)c(Cl)c2)o1 (centres unmarked) [Compound 281] |
| 110 | 100 to 1000 |  | 78 | > 75 | 26 | ≤ 100 | Cc1ncc(C(C)(C)C(=O)NCc2cc(Cl)c(C3CCC(=O)NC3=O)c(Cl)c2)o1 (centres unmarked) [Compound 282] |
